Assay results from PubChem BioAssay AID2823 (Broad Institute, 2010).
Active and inactive are the calls of the source. How the calls were made is not given here.

Each molecule was assayed against RanGTP-importin-beta complex (human Ran / KPNB1) (assay: disruptors of RanGTP/KPNB1 binding – biochemical, FRET, CFP/YFP, cell-free homogeneous, confirmation (AID 2823)). Conditions: CFP-Ran/YFP-importin-beta FRET ratio.
For `O=[N+]([O-])c1cc(CN2CCCC2)ccc1Sc1ccc(Cl)cc1`, the IC50 was > 50 µM (inactive).
For `CC(C)c1ccccc1NC(=O)C1C2C=CC(C2)C1C(=O)O` (stereo unspecified), the IC50 was > 50 µM (inactive).
Work on `CCc1cc(=O)oc2c(CNCc3ccc(OC)cc3OC)c(O)c(Cl)cc12` yielded an IC50 of 14.4 µM.
With `C/C(=N\NC(=O)c1c(C)nc2ccccn12)c1ccc(O)cc1O` the IC50 was > 50 µM (inactive).
With `CC1CC(C)CN(c2cc(=O)n(Cc3ccc(F)cc3)c(=O)[nH]2)C1` (stereo unspecified) the IC50 was > 50 µM (inactive).
In the case of `CCOC(=O)C1CCN(C(=O)COC(=O)c2ccc3[nH]c4c(c3c2)CCCC4)CC1`, the IC50 is reported as > 50 µM (inactive).
With `N#Cc1cc2c(ccc3ccccc32)oc1=O` the IC50 was > 50 µM (inactive).
For `COc1ccc(Br)cc1/C=C/C(=O)NC(=S)Nc1ccc(CN2CCOCC2)cc1`, the IC50 was > 50 µM (inactive).
Work on `Cc1cc(C(=O)O)ccc1-c1ccc(/C=C2\NC(=O)N(Cc3ccccc3Cl)C2=O)o1` yielded an IC50 of 10.7 µM.
`Nc1nonc1-n1nnc(C(=O)N/N=C/c2ccccc2)c1CSc1ccc(Cl)cc1` was tested, and the IC50 was > 50 µM (inactive).
`COc1ccc(N2Cc3ccccc3/C2=N\C(=O)Nc2ccccc2)cc1` was tested, and the IC50 was > 50 µM (inactive).
`COCCn1c(=NC(=O)c2ccc3c(c2)OCO3)c(C#N)cc2c(=O)n3cccc(C)c3nc21` was tested, and the IC50 was > 50 µM (inactive).
With `O=c1[nH]c(=O)n(-c2cccc3ccccc23)c(O)c1/C=N/N1CCCCCC1` the IC50 was > 50 µM (inactive).
In the case of `Cc1ccc(NC(=O)C2CCN(S(=O)(=O)c3ccc(Cl)c(C(F)(F)F)c3)CC2)nc1`, the IC50 is reported as > 50 µM (inactive).
With `O=C(COC(=O)c1ccc2ccccc2c1)NCCCc1ccccc1` the IC50 was > 50 µM (inactive).
In the case of `Cn1c(SCc2cccc([N+](=O)[O-])c2)nc2c(c1=O)SCC2`, the IC50 is reported as > 50 µM (inactive).
For `Cc1ccc(OCC(=O)NNc2c3ccccc3nc3ccccc23)cc1`, the IC50 was > 50 µM (inactive).
For `COc1ccc(N2C(=O)CC(C#N)=C2N)cc1`, the IC50 was > 50 µM (inactive).
For `O=C(O)c1cccc(Nc2c3ccccc3nc3ccccc23)c1`, the IC50 was > 50 µM (inactive).
With `Cc1cc(C)c2c(n1)nn1c(NCCCN(C)C)cc(C)nc21` the IC50 was 22.3 µM.
With `COc1cc(OC)cc(-c2cc3nc(C)cc(N4CCN(C(=O)c5ccco5)CC4)n3n2)c1` the IC50 was 4.91 µM.
For `Cc1ccc(N=Cc2cc3c(cc2[N+](=O)[O-])OCO3)cc1[N+](=O)[O-]`, the IC50 was > 50 µM (inactive).
With `O=C(Nc1cccc(F)c1)c1ccc(S(=O)(=O)NCC2CCCO2)cc1` (stereo unspecified) the IC50 was > 50 µM (inactive).
Work on `COC(=O)C1=CN(c2ccc(OC)cc2)C=C(C(=O)OC)C1c1cccc(F)c1` yielded an IC50 of 35.2 µM.
With `CCOC(=O)c1c(C)oc2cc(Br)c(OCC(N)=O)cc12` the IC50 was > 50 µM (inactive).
For `N#C/C(=C(/O)CSc1ccccn1)c1nc2ccccc2s1`, the IC50 was > 50 µM (inactive).
For `Cc1ccc(C)c(NC(=S)N(C)CCc2ccccn2)c1`, the IC50 was > 50 µM (inactive).
Molecule `CNc1cc(F)nc(F)n1` has an IC50 of 18.4 µM.
For `COc1ccc2cc(C#N)c(N3CCN(C(=O)c4ccccc4C)CC3)nc2c1`, the IC50 was > 50 µM (inactive).
In the case of `COc1ccc(N2C(=O)c3ccccc3NC2c2cccnc2)cc1` (stereo unspecified), the IC50 is reported as > 50 µM (inactive).
In the case of `CC(C)C1C2=C(CC(C)(C)CC2=O)ON1c1ccccc1` (stereo unspecified), the IC50 is reported as > 50 µM (inactive).
In the case of `CC(C)(C)CN1CCC(n2nccc2NC(=O)c2ccccc2Cl)CC1`, the IC50 is reported as > 50 µM (inactive).
For `CN(C)C=NC(=O)c1cc(C(=O)c2ccc(C(C)(C)C)cc2)c[nH]1`, the IC50 was > 50 µM (inactive).
For `CCc1nnc(NC(=O)c2c(C)nn(-c3ccccc3)c2Cl)s1`, the IC50 was > 50 µM (inactive).
`CCOC(=O)c1c(N)n(CCN2CCCCC2)c2nc3ccccc3nc12` gave an IC50 of 32.3 µM.
`CCOC(=O)N1CCN(c2cc(=O)n(C3CCCCC3)c(=O)[nH]2)CC1` was tested, and the IC50 was > 50 µM (inactive).
In the case of `CCC(CC)COC(=O)C1=C(C)NC(=O)NC1c1ccc(N(C)C)cc1` (stereo unspecified), the IC50 is reported as > 50 µM (inactive).
In the case of `O=C(NC1=NCCS1)c1cc(-c2cccnc2)nc2ccccc12`, the IC50 is reported as > 50 µM (inactive).
For `COc1ccc(C2NC(C(=O)O)Cc3c2[nH]c2ccccc32)cc1CN1CCN(c2ccc(F)cc2)CC1` (stereo unspecified), the IC50 was 7.68 µM.
Work on `O=c1cc(CN2CCN(Cc3ccccc3)CC2)c2ccc(O)cc2o1` yielded an IC50 of 11.1 µM.
`COc1cc(S(=O)(=O)NCCCN2CCOCC2)ccc1Cl` was tested, and the IC50 was > 50 µM (inactive).
With `Cc1ccc(N=Cc2cc3c(cc2O)OC(N)=C(C#N)C3c2ccccc2)cc1` (stereo unspecified) the IC50 was > 50 µM (inactive).
In the case of `CCOc1cc(NS(=O)(=O)c2ccc(NC(C)=O)cc2)c(OCC)cc1NC(=O)C(C)C`, the IC50 is reported as > 50 µM (inactive).
Work on `CCN1C(=O)/C(=C2/Sc3ccccc3N2CCCS(=O)(=O)O)SC1=S` yielded an IC50 of 15.2 µM.
`CC(C)NC(=O)C1CC=CCC1C(=O)O` (stereo unspecified) was tested, and the IC50 was > 50 µM (inactive).
With `CC1CCCCN1C(=O)Cn1c(=O)oc2cc(S(=O)(=O)N3CCCC3)ccc21` (stereo unspecified) the IC50 was > 50 µM (inactive).
In the case of `CC(=O)N(c1ccc(Cl)cc1)c1c[nH]c2ccccc12`, the IC50 is reported as > 50 µM (inactive).
`Cc1c(CC(=O)N2CCN(C(=O)C3COc4ccccc4O3)CC2)c(=O)oc2cc(O)c(Cl)cc12` (stereo unspecified) showed an IC50 of 4.84 µM.
For `C[C@H](O)c1[nH]c2cc(F)ccc2c1[C@H](C)O`, the IC50 was > 50 µM (inactive).
For `COCCNC(=O)/C(C#N)=C/c1cn(CC(=O)NCc2ccco2)c2ccccc12`, the IC50 was 40.4 µM.
`Cc1ccc(S(=O)(=O)CC(=O)N(CCCN(C)C)c2nc3ccc(C)cc3s2)cc1` was tested, and the IC50 was > 50 µM (inactive).
For `COc1cc(/C=N/NC(=O)c2cc(C)oc2C)ccc1O`, the IC50 was > 50 µM (inactive).
In the case of `Cc1cccc(OCC(=O)NNc2c3ccccc3nc3ccccc23)c1`, the IC50 is reported as > 50 µM (inactive).
`CCc1ccc(S(=O)(=O)Nc2ccc(-c3nc4cccnc4s3)cc2)s1` was tested, and the IC50 was > 50 µM (inactive).
Work on `O=C(c1cc2ccccc2oc1=O)N1CCN(CCc2ccccc2)CC1` yielded an IC50 of 6.7 µM.
In the case of `NC(=O)c1ccc(F)cc1`, the IC50 is reported as > 50 µM (inactive).
In the case of `CC(=O)[C@@H]1[C@@H](C)N(Cc2ccccc2)C(=O)N[C@H]1c1cccc(C(F)(F)F)c1`, the IC50 is reported as > 50 µM (inactive).
For `Clc1ccc(-c2nnc(SCc3nc4ccccc4[nH]3)o2)c(Cl)c1`, the IC50 was > 50 µM (inactive).
For `Cc1nn(C)c(Oc2ccc(Cl)cc2)c1C(=O)O`, the IC50 was > 50 µM (inactive).
`Cc1oc2cc(O)ccc2c(=O)c1-c1nncn1-c1ccccc1` was tested, and the IC50 was 32.3 µM.
In the case of `COCCNC(=S)N1CCCN(c2nc3cc(C)ccc3cc2C#N)CC1`, the IC50 is reported as 29.5 µM.
Work on `COCC(C)OC(=O)c1c(N)n(CC(C)C)c2nc3ccccc3nc12` (stereo unspecified) yielded an IC50 of 28.5 µM.
In the case of `CCN1CCc2c(sc(NC(=O)C3CCCCC3)c2C(=O)OC)C1`, the IC50 is reported as > 50 µM (inactive).
`CCN1/C(=C/C=C/c2sc3ccccc3[n+]2CC)Sc2ccccc21` was tested, and the IC50 was 16.6 µM.
`Cn1c(N)c(C(=O)COC(=O)C2(c3ccc(F)cc3)CCCC2)c(=O)n(C)c1=O` was tested, and the IC50 was > 50 µM (inactive).
In the case of `COc1ccc(N2C(=O)N3[C@H](c4ccc(Br)cc4)[C@@H]4C(=O)N(C(C)(C)C)C(=O)[C@@H]4[C@]3(Cc3ccccc3)C2=O)cc1`, the IC50 is reported as > 50 µM (inactive).
`c1cncc(Nc2c3ccccc3nc3ccccc23)c1` was tested, and the IC50 was > 50 µM (inactive).
With `Cc1c(C#N)c(NC(=O)CCl)n(Cc2ccccc2)c1C` the IC50 was > 50 µM (inactive).
`Cc1ccc(C(=O)NCc2ccco2)cc1S(=O)(=O)N1CCOCC1` was tested, and the IC50 was > 50 µM (inactive).
In the case of `CC1Cc2cc(/C(O)=C3/C(=O)C(=O)N(Cc4ccncc4)C3c3ccc(N(C)C)cc3)ccc2O1` (stereo unspecified), the IC50 is reported as > 50 µM (inactive).
In the case of `CCSc1nnc(-c2cc(Br)ccc2N=Cc2c(C)[nH]n(-c3ccccc3)c2=O)c(=O)[nH]1`, the IC50 is reported as > 50 µM (inactive).
With `Cc1cc(C)c[n+](-c2nc3ccccc3nc2[N-]S(=O)(=O)c2ccc(Br)s2)c1` the IC50 was 3.68 µM.
`O=C(COC(=O)c1cccnc1Nc1ccccc1F)NCCN1C(=O)CSC1=O` was tested, and the IC50 was > 50 µM (inactive).
For `O=C(c1ccco1)N1CCN(c2cc(=O)n(-c3ccc(Cl)cc3)c(=O)[nH]2)CC1`, the IC50 was > 50 µM (inactive).
In the case of `Cc1cccc2cc(C#N)c(NCCNC(=O)COc3ccccc3)nc12`, the IC50 is reported as > 50 µM (inactive).
`COc1ccc(NC(=O)N2CCCCCC2)cc1` was tested, and the IC50 was > 50 µM (inactive).
For `CCN1/C(=C2\SC(=S)N(Cc3ccccc3)C2=O)Sc2ccccc21`, the IC50 was > 50 µM (inactive).
`NS(=O)(=O)c1cccc(NC(=O)CCSc2ccc(Cl)cc2)c1` was tested, and the IC50 was > 50 µM (inactive).
`Cc1sc2nc(COC(=O)Cc3ccccc3)[nH]c(=O)c2c1C` was tested, and the IC50 was > 50 µM (inactive).
`COc1ccc2c(c1)C(c1ccc(C)o1)=NNC(c1cccnc1)=N2` was tested, and the IC50 was > 50 µM (inactive).
`CC1CCN(c2cc(=O)n(C3CCCCC3)c(=O)[nH]2)CC1` was tested, and the IC50 was > 50 µM (inactive).
`CCN1CCC2(CC1)C(C#N)=C(N)Oc1c2sc2nc(C)cc(C)c12` was tested, and the IC50 was > 50 µM (inactive).
In the case of `COc1ccc(OC)c(S(=O)(=O)n2ccnc2C)c1`, the IC50 is reported as > 50 µM (inactive).
`CCOC(=O)CC(=O)CSc1nc2c(cc1C#N)CCC2` was tested, and the IC50 was 29.2 µM.
`CCCCc1cc(-c2n[nH]c(=S)o2)c2ccccc2n1` was tested, and the IC50 was > 50 µM (inactive).
`O=C(O)Cn1cc(/C=C2\SC(=O)N(c3ccccc3)C2=O)c2ccccc21` gave an IC50 of 39.4 µM.
For `Cc1cc(Nc2ccccc2)nn1C(=O)c1ccccc1`, the IC50 was > 50 µM (inactive).
`CCCCn1c(NC(=O)c2ccc(Br)o2)c(S(=O)(=O)c2ccccc2)c2nc3ccccc3nc21` gave an IC50 of 4.83 µM.
`CC(C)Sc1nc(N2CCOCC2)c2c3c(sc2n1)COC(C)(C)C3` was tested, and the IC50 was > 50 µM (inactive).
With `COc1cc2c(cc1OC)CN(Cc1cc(=O)oc3c(C)c(C)ccc13)CC2` the IC50 was > 50 µM (inactive).
With `COCCNC(=O)C(C)OC(=O)c1cc2occc2n1C` (stereo unspecified) the IC50 was > 50 µM (inactive).
In the case of `O=[N+]([O-])c1ccc(Nc2c3ccccc3nc3ccccc23)cc1`, the IC50 is reported as > 50 µM (inactive).
`Cc1ccc(O)c(Nc2c3ccccc3nc3ccccc23)c1` gave an IC50 of 48.8 µM.
For `C/C(N)=C(/C#N)C(=O)COc1ncnc2ccccc12`, the IC50 was > 50 µM (inactive).
`O=c1[nH]c(Nc2ccccc2Cl)cc2ccccc12` was tested, and the IC50 was > 50 µM (inactive).
With `c1c2c(cc3sc(N4CCOCC4)nc13)OCCO2` the IC50 was > 50 µM (inactive).
With `Nc1c(C(=O)NC2CCCC2)c2nc3ccccc3nc2n1/N=C/c1ccco1` the IC50 was 14.3 µM.
`CSc1nsc(/C=C/Nc2ccc(C)cc2)c1C#N` was tested, and the IC50 was > 50 µM (inactive).
With `CC1=C(C(=O)OCC2CCCO2)C(c2ccccc2OC(C)C)C2=C(CC(c3ccco3)CC2=O)N1` (stereo unspecified) the IC50 was 8.41 µM.
In the case of `Cc1ccc(C(=O)Nc2ncc(Cc3ccc(F)cc3)s2)o1`, the IC50 is reported as > 50 µM (inactive).
`COc1ccc(CCn2c(=N)c(C(=O)NCC3CCCO3)cc3c(=O)n4cccc(C)c4nc32)cc1` (stereo unspecified) was tested, and the IC50 was 11.5 µM.
